In EP0182152B1, “Antitumor antibiotics (LL-E33288 Complex)” (AMERICAN CYANAMID COMPANY, priority 1984, dated 1986):

Tests used:
[1] = tested on: lymphocytic leukemia P388; experiment: Lymphocytic Leukemia P388 Test; type: in vivo, BDF1 mice; conditions: Table IV, i.p. days 1, 5 and 9
From the text: (§1) Certain in vivo testing systems and protocols have been developed by the National Cancer Institute for testing compounds to determine their suitability as anti-neoplastic agents. These have been reported in "Cancer Chemotherapy Reports", Part III, Vol. 3, No. 2 (1972), Geran, et al. These protocols have established standardized screening tests which are generally followed in the field of testing for antitumor agents. Of these systems, lymphocytic leukemia P388, melanotic melanoma B16, L1210 leukemia and colon 26 adenocarcinoma are particularly significant to the present invention. These neoplasms are utilized for testing as transplantable tumors in mice. Generally, significant anti-tumor activity, shown in these protocols by a percentage increase of mean survival times of the treated animals (T) over the control animals (C), is indicative of similar results in human leukemias and solid tumors.
The animals used were BDF1 mice, all of one sex, weighing a minimum of 17 g and all within a 3 g weight range. There were 5 or 6 mice per test group. The tumor transplant was by intraperitoneal injection of 0.5 ml of dilute ascitic fluid containing 10^6 cells of lymphocytic leukemia P388. LL-E33288 antibiotics were tested in the P388 system both as the individual β1-Br and […] components and as a complex of all components (Bromo-complex). The test compounds were administered intrapertioneally at a volume of 0.5 ml in 0.2% Klucel in normal saline on days 1, 5 and 9 (relative to tumor inoculation) at the indicated doses. The mice were weighed and the survivors recorded on a regular basis for 30 days. The median survival time and the ratio of survival time for treated (T)/control (C) animals were calculated. The positive control compound was Cisplatin given as an intraperitioneal injection in 0.5 ml of 0.2% Klucel on days 1, 5 and 9 at the indicated doses.
If T/C X 100 (%) is 125 or over, the tested compound is considered to have significant anti-tumor activity.
(§2) In the same manner, the following iodo-components were tested for antineoplastic activity.

melanotic melanoma B16 = experiment: Melanotic Melanoma B16 Test; type: in vivo, BDF1 mice; conditions: Table V, i.p. days 1 through 9, control 16 days
From the text: as §1
The animals used were BDF1 mice, all of the same sex, weighing a minimum of 17 g and all within a 3 g weight range. There are normally 6 animals per test group. A 1 g portion of melanotic melanoma β16 tumor was homogenized in 10 ml of cold balanced salt solution and a 0.5 ml aliquot of the homogenate was implanted intraperitoneally into each of the test mice. LL-E33288 antibiotics were tested in the β16 system both as the individual β1-Br and γ1-Br components and as a complex of all components (Bromo-complex). The test compounds were administered intraperitioneally on days 1 through 9 (relative to tumor inoculation) at various doses. The mice were weighed and survivors recorded on a regular basis for 60 days. The median survival time and the ratio of survival time for treated (T)/control (C) animals were calculated. The positive control compounds were Cisplatin or Adriamycin. The results of this test appear in Table V. If T/C X 100 (%) is 125 or over, the tested compound is considered to have significant anti-tumor activity.
as §2

[2] = tested on: lymphocytic leukemia L1210; experiment: Lymphocytic Leukemia L1210 Test; type: in vivo, BDF1 mice; conditions: Table VI, i.p., control 8.3 days
From the text: as §1
The animals used were BDF1 mice, all of one sex, weighing a minimum of 17 g and all within a 3 g weight range. There were 6 mice in each test group and 18 in control groups. The tumor transplant was by intraperitoneal injection of 0.5 ml of lymphocytic leukemia L1210 at a concentration of 10^5 cells per mouse. LL-E33288 antibiotics were tested in the L1210 system both as the individual β1-Br component and as a complex of all components (Bromo-complex). The test compounds were administered on days 1, 5 and 9 or days 1 through 9 (relative to tumor inoculation) at various doses. The mice were weighed and survivors recorded on a regular basis for 30 days. The median survival time and the ratio of survival time for treated (T)/control (C) animals were calculated. The positive control compound was 1,4-dihydroxy-5,8-bis[[2-(2-hydroxyethylamino)ethyl]amino]anthraquinone dihydrochloride or Cisplatin given intraperitoneally at the indicated dose. If T/C X 100 (%) is 125 or over, the tested compound is considered to have significant anti-tumor activity.
as §2

Colon 26 tumor = experiment: Colon 26 Adenocarcinoma Test; type: in vivo, CD2F1 female mice
From the text: as §1
The animals used were CD2F1 female mice weighing a minimum of 17 g and all within a 3 g weight range. There were 5 or 6 mice per test group with three groups of 5 or 6 animals used as untreated controls for each test. The tumor implant was by intraperitoneal (or subcutaneous) injection of 0.5 ml of a 2% Colon 26 tumor brei in Eagle's MEM medium containing antibiotics. LL-E33288 antibiotics were tested in the Colon 26 system as a complex (Bromo-complex) of all components. The test compounds were administered intraperitoneally on days 1, 5 and 9 (relative to tumor implant doses). The mice were weighed and deaths recorded on a regular basis for 30 days. The median survival times for treated (T)/control (C) animals were calculated. The positive control compound was Cisplatin. If T/C X 100 (%) is 130 or over, the tested compound is considered to have significant anti-tumor activity.
as §2

[3] = dose 0.06 mg/kg, control 10.6 days
[4] = dose 0.06 mg/kg, control 12.4 days
[5] = dose 0.25 mg/kg, control 10.6 days
[6] = dose 0.4 mg/kg, control 12.4 days
[7] = dose 1.0 mg/kg, control 10.6 days
[8] = dose 1.0 mg/kg, control 12.4 days
[9] = Table VII, i.p. days 1, 5 and 9, dose 0.25 mg/kg, control 18.6 days
[10] = Table VII, i.p. days 1, 5 and 9, dose 0.5 mg/kg, control 18.6 days
[11] = Table VII, i.p. days 1, 5 and 9, dose 1 mg/kg, control 18.6 days
[12] = Table XII, dose 0.5 mg/kg, control 18.5 days
[13] = Table XII, dose 1 mg/kg, control 18.5 days
[14] = Table XII, dose 2 mg/kg, control 18.5 days

## N.N.[Cl][Pt][Cl] [Cisplatin, reference compound]
[1]; [3]
  Median Survival: 14.5 days
  T/C x 100: 137%
[1]; [4]
  Median Survival: 15 days
  T/C x 100: 121%
[1]; [5]
  Median Survival: 15 days
  T/C x 100: 142%
[1]; [6]
  Median Survival: 19 days
  T/C x 100: 153%
[1]; [7]
  Median Survival: 21.5 days
  T/C x 100: 203%
[1]; [8]
  Median Survival: 25.5 days
  T/C x 100: 206%
Melanotic melanoma B16; dose 0.05 mg/kg
  Median Survival: 21.5 days
  T/C x 100: 134%
Melanotic melanoma B16; dose 0.1 mg/kg
  Median Survival: 23 days
  T/C x 100: 144%
Melanotic melanoma B16; dose 0.2 mg/kg
  Median Survival: 25 days
  T/C x 100: 156%
Melanotic melanoma B16; dose 0.4 mg/kg
  Median Survival: 25 days
  T/C x 100: 156%
[2]; dose 1.25 mg/kg
  Median Survival: 11 days
  T/C x 100: 133%
[2]; dose 2.5 mg/kg
  Median Survival: 12 days
  T/C x 100: 145%
[2]; dose 5 mg/kg
  Median Survival: 7.5 days
  T/C x 100: 90%
Colon 26 tumor; [9]
  Median Survival: 37.5 days
  T/C x 100: 202%
Colon 26 tumor; [10]
  Median Survival: 38.5 days
  T/C x 100: 207%
Colon 26 tumor; [11]
  Median Survival: 29 days
  T/C x 100: 156%
Colon 26 tumor; [12]
  Median Survival: 23.5 days
  T/C x 100: 127%
Colon 26 tumor; [13]
  Median Survival: 27.5 days
  T/C x 100: 149%
Colon 26 tumor; [14]
  Median Survival: 15.5 days
  T/C x 100: 84%
